From patent US4031094A, “N-meta-trifluoromethylpiperazines” (Synthelabo, priority 1972, dated 1977)
Structures can show the parent of a compound that is named as a salt.

Columns and labels:
[1] = LD 50 intravenously; settings: in vivo; intravenous; 95% confidence limits in parentheses
Method: (§1) In every case, the compounds under test were administered orally. The results obtained are given in the table below which also gives the LD 50's (and their 95% confidence limits) of the compounds studied determined intravenously and orally.

[2] = overall comparison of therapeutic index, activity and toxicity; assay type: in vivo; settings: compared with compounds II and III
Method: The compounds of formula IA and their salts have interesting pharmacological properties which make them of therapeutic interest.
as §1

[3] = test system: mice; test: motor activity in mice in the hour following administration; assay type: in vivo; settings: 5 mg/kg, oral
Method: 2. the motor activity in mice in the hour following administration of the compound under test;
as §1

[4] = electric "battle test" (Tedeschi & al); assay type: in vivo; settings: oral; read-out: Electric Battle Test ED 50
Method: 3. the electric "battle test" (Tedeschi & al, J. Pharmacol., 1959, 125, pages […]); and
as §1

[5] = solubility
[6] = test system: rat; test: anorexigenic effects in the rat trained to satisfy its alimentary needs in a period of 5 hours each 24 hours; assay type: in vivo; settings: oral, read-out: Anorexia ED 50
Method: 1. a study of the anorexigenic effects in the rat trained to satisfy its alimentary needs in a period of 5 hours each 24 hours;
as §1

[7] = LD 50 orally; settings: in vivo; oral; 95% confidence limits in parentheses
Method: as §1

[8] = known properties of comparison compounds; cited from earlier work

Row | Compound | LD50 [1] [mg/kg] | activity, overall [2] | therapeutic index [2] | toxicity [2] | Motor Activity [3] [%] | ED50 [4] [mg/kg] | solubility in water [5] | ED50 [6] [mg/kg] | LD50 [7] [mg/kg] | known pharmacological properties [8] | solubility in organic solvents ([5]; most usual organic solvents)
1 | Cl.N#CCCN1CCN(c2cccc(SC(F)(F)F)c2)CC1 [IA, N-(β-cyano-ethyl)-N'-(m-trifluoromethylthiophenyl)-piperazine hydrochloride] | 180 | higher activity | better therapeutic index than compounds II and III | lower toxicity | 0 | 8 | soluble in water | 11 | 335 | – | –
2 | COC(=O)CCN1CCN(c2cccc(SC(F)(F)F)c2)CC1 [Example 5, N-(β-methoxycarbonyl-ethyl)-N'-(m-trifluoromethylthiophenyl)-piperazine hydrochloride] | – | – | – | – | – | – | soluble in water | – | – | – | –
3 | FC(F)(F)c1cccc(N2CCNCC2)c1 [Compound II, N-(m-trifluoromethylphenyl)-piperazine, reference compound] | 80 | – | – | – | – | 15 | – | 25 | 200 | known to possess anorexigenic and anxiolytic properties | –
4 | FC(F)(F)Sc1cccc(N2CCNCC2)c1 [III, N-(m-trifluoromethylthiophenyl)-piperazine] | 90 | – | – | – | 0 | 15 | soluble in water | 15 | 210 | known to possess anorexigenic properties | soluble in water and in most usual organic solvents
